These results are taken from patent US8912178B2, “mTOR selective kinase inhibitors” (Xcovery Holdings Company, LLC, priority 2010, dated 2014).

One test addresses T1, mTOR (Homo sapiens, UniProt P42345).
T1 construct: purchased Ambit Biosciences (contract assay)
Kind of test: Kinase competition binding assay (Ambit Biosciences), mTOR. Particulars: tested at Ambit Biosciences; read-out: IC50 against mTOR. How it is done: (§1) Assays are performed as described in Fabian et al. (2005) Nature Biotechnology, vol. 23, p. 329 and in Karaman et al. (2008) Nature Biotechnology, vol. 26, p. 127.
(§2) Kinase assays. For most assays, kinase-tagged T7 phage strains are grown in parallel in 24-well blocks in an E. coli host derived from the BL21 strain. E. coli are grown to log-phase and are infected with T7 phage from a frozen stock (multiplicity of infection˜0.1) and are incubated with shaking at 32° C. until lysis (˜90 minutes). The lysates are centrifuged (6,000×g) and filtered ([…]) to remove cell debris. The remaining kinases are produced in HEK-293 cells and subsequently tagged with DNA for qPCR detection. Streptavidin-coated magnetic beads are treated with biotinylated small molecule ligands for 30 minutes at room temperature to generate affinity resins for kinase assays. The liganded beads are blocked with excess biotin and washed with blocking buffer (SeaBlock (Pierce), 1% BSA, 0.05% Tween 20, 1 mM DTT) to remove unbound ligand and to reduce non-specific phage binding. Binding reactions are assembled by combining kinases, liganded affinity beads, and test compounds in 1× binding buffer (20% SeaBlock, 0.17×PBS, 0.05% Tween 20, 6 mM DTT). Test compounds are prepared as 40× stocks in 100% DMSO and directly diluted into the assay. All reactions are performed in polypropylene 384-well plates in a final volume of 0.04 ml. The assay plates are incubated at room temperature with shaking for 1 hour and the affinity beads are washed with wash buffer (1×PBS, 0.05% Tween 20). The beads are then re-suspended in elution buffer (1×PBS, 0.05% Tween 20, 0.5 mM non-biotinylated affinity ligand) and are incubated at room temperature with shaking for 30 minutes. The kinase concentration in the eluates is measured by qPCR.
(§3) Compounds were tested using the above assay at Ambit Biosciences (San Diego, Calif., USA).

In the next test the target is T2, PI3Kα (Homo sapiens, UniProt P42336).
T2 construct: purchased Ambit Biosciences (contract assay)
T2 sequence (P42336 whole entry): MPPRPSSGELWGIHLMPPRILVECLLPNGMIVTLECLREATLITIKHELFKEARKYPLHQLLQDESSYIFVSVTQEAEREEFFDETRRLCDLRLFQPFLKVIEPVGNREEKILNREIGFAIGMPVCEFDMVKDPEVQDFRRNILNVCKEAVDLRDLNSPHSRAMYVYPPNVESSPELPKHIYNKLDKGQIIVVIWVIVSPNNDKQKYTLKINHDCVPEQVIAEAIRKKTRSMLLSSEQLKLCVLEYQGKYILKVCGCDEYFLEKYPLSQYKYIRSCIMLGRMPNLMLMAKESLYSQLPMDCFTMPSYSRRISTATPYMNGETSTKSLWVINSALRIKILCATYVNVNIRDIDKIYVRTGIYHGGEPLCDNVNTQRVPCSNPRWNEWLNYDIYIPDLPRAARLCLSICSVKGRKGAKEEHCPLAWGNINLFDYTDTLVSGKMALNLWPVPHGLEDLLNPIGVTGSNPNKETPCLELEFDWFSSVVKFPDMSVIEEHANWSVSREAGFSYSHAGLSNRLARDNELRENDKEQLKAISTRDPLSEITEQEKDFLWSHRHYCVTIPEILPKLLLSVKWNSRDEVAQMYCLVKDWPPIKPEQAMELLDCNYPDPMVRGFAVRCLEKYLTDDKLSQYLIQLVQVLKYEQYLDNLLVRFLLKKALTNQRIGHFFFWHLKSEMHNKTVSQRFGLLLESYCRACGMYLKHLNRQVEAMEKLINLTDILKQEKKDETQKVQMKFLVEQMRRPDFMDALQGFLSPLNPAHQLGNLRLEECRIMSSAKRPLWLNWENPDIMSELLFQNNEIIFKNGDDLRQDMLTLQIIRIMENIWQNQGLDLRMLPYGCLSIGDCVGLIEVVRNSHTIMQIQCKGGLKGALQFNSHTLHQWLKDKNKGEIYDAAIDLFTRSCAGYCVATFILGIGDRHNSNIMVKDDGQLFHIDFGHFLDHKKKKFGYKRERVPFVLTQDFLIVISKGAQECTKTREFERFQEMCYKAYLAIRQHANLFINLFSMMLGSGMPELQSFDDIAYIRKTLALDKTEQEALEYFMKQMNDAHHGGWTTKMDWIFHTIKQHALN
The test can be described thus: Kinase competition binding assay (Ambit Biosciences), PI3Kα. Conditions: tested at Ambit Biosciences; read-out: IC50 against PI3Kα. The protocol:
as §1, §2, §3

The next test has as its target T3, PI3Kβ (Homo sapiens, UniProt P42338).
T3 construct: purchased Ambit Biosciences (contract assay)
Kind of test: Kinase competition binding assay (Ambit Biosciences), PI3Kβ. Particulars: tested at Ambit Biosciences; read-out: IC50 against PI3Kβ. How it is done: as §1, §2, §3

Another test has as its target T4, PI3Kδ (Homo sapiens, UniProt O00329).
T4 construct: purchased Ambit Biosciences (contract assay)
T4 sequence (O00329 1-1044): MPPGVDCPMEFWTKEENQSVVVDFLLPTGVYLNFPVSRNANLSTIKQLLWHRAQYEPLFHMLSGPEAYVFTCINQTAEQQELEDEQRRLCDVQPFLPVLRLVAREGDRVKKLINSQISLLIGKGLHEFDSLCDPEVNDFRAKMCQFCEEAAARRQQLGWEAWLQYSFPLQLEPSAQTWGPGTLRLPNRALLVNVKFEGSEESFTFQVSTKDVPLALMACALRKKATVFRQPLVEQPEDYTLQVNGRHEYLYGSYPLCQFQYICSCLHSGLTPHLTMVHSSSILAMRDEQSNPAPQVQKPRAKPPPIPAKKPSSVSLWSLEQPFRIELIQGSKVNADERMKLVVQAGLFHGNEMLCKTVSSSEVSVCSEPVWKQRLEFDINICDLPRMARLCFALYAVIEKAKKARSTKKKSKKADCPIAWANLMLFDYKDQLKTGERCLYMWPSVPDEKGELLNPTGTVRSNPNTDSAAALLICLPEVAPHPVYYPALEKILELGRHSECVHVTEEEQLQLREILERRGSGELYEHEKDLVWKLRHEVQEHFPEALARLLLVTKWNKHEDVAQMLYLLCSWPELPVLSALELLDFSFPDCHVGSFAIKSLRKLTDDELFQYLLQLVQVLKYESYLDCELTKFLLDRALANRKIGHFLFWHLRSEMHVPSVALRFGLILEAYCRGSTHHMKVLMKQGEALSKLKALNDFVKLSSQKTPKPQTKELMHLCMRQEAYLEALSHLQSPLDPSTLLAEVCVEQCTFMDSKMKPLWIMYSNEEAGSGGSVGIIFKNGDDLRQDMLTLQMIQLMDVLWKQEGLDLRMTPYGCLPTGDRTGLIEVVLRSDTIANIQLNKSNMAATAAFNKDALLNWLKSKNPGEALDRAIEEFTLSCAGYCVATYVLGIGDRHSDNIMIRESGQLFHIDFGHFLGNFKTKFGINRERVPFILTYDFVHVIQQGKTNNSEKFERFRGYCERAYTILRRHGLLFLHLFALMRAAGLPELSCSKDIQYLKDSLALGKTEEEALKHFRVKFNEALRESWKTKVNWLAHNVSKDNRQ
The test can be described thus: Kinase competition binding assay (Ambit Biosciences), PI3Kδ. Conditions: tested at Ambit Biosciences; read-out: IC50 against PI3Kδ. How it is done:
as §1, §2, §3

Another test concerns the target T5, PI3Kγ (Homo sapiens, UniProt P48736).
T5 construct: purchased Ambit Biosciences (contract assay)
Kind of test: Kinase competition binding assay (Ambit Biosciences), PI3Kγ. Particulars: tested at Ambit Biosciences; read-out: IC50 against PI3Kγ. How it is done:
as §1, §2, §3

A further test relates to U87-MG cells. Kind of test: Proliferation assay (Alamar blue), U87-MG. It is filed as cell-based. Conditions: Homo sapiens, U-87 MG, 48 h, 46-h incubation + 2-h Alamar blue, read-out: IC50 against proliferation of U87-MG cells. The protocol:
(§4) Cells (U87-MG, A375, HeLa, A549, MCF7, and MCF7 ADR-res) are cultured in DMEM with 10% fetal bovine serum and streptomycin/penicillin. Solutions of the test compounds (1 μL) are spotted onto a 96-well culture plate, followed by addition of cells (1×10^4) in 100 μL. After 46-h incubation, 10 μL of Alamar blue reagent is added to each well. After 2-h, the excitation/emission wavelengths at 544/590 nm are measured using Fluostar.
(In general: Alamar Blue is a resazurin reagent that responds to reducing activity.)

Another test deals with A549 cells. Kind of test: Proliferation assay (Alamar blue), A549. It is filed as cell-based. Particulars: Homo sapiens, 48 h; A549, 46-h incubation + 2-h Alamar blue; read-out: IC50 against proliferation of A549 cells. The protocol: as §4

T5 sequence (P48736 whole entry): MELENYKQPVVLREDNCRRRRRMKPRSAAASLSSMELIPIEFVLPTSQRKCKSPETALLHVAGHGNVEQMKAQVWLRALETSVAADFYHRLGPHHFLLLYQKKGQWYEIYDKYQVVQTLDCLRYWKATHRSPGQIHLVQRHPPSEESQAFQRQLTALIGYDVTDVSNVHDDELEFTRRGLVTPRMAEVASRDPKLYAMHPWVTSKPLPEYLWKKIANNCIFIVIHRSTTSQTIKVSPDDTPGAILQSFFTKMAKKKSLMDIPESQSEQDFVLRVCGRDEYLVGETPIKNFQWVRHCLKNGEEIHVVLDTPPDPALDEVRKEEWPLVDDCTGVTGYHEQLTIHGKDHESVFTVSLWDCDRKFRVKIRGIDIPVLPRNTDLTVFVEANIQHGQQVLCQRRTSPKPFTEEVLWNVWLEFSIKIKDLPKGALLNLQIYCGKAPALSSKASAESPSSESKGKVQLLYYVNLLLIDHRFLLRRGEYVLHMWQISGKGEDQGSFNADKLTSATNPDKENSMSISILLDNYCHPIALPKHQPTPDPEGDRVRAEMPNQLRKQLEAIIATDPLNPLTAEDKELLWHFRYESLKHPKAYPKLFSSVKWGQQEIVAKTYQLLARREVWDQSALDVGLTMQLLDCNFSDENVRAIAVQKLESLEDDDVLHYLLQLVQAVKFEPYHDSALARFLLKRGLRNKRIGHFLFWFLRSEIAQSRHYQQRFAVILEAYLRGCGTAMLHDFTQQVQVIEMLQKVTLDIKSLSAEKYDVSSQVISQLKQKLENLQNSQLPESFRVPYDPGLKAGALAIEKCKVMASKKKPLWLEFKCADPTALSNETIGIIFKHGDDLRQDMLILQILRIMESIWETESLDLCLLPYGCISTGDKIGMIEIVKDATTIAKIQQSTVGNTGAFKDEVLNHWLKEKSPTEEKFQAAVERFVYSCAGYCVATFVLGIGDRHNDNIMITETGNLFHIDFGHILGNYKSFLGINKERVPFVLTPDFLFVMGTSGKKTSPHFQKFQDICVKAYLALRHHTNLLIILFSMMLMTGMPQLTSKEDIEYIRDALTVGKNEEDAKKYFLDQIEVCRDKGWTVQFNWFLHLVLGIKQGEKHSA
T3 sequence (P42338 whole entry): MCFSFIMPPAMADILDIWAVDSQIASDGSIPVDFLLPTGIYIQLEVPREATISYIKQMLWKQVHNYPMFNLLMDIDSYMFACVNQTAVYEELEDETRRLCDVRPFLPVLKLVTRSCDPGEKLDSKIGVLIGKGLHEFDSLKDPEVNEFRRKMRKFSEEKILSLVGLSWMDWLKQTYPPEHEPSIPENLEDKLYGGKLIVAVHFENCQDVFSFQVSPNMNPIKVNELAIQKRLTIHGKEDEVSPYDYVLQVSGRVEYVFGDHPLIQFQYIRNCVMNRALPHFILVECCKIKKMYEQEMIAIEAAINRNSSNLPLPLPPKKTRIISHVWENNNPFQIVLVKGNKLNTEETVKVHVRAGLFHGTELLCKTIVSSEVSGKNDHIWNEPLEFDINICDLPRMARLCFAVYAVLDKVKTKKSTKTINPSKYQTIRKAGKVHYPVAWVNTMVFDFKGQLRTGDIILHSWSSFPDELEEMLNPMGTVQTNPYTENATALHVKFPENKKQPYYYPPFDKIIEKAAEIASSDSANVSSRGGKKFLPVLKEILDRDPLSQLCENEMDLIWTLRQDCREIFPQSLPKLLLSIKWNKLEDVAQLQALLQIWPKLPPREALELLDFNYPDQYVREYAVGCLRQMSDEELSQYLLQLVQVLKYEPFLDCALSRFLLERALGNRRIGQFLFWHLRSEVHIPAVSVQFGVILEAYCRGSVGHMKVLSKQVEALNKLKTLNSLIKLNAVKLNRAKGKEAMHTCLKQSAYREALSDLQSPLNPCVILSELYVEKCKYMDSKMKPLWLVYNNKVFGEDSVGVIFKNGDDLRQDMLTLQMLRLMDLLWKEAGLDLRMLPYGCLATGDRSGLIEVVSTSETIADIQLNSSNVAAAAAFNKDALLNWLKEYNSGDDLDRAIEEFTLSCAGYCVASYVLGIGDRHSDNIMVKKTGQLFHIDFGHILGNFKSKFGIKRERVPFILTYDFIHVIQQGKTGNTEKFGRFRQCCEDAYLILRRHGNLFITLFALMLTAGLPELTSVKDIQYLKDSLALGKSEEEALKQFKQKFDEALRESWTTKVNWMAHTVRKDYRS

On to `CCNC(=O)Nc1ccc(-c2nc(N3CCOCC3)nc3c2cnn3CC(C)(C)O)cc1` [Example 1, 1-ethyl-3-[4-[1-(2-hydroxy-2-methyl-propyl)-6-morpholino-pyrazolo[3,4-d]pyrimidin-4-yl]phenyl]urea], for which the IC50 is less than 110 nM at mTOR; more than 100 nM at PI3Kα; more than 100 nM on PI3Kβ; more than 100 nM at PI3Kδ; more than 100 nM at PI3Kγ; less than 1000 nM in the test on U87-MG cells. Further, the IC50 in the test on A549 cells was less than 1000 nM.
Turning to `CNC(=O)Nc1ccc(-c2nc(N3CCOCC3)nc3c2cnn3CC(C)(C)O)cc1` [Example 2, 1-[4-[1-(2-hydroxy-2-methyl-propyl)-6-morpholino-pyrazolo[3,4-d]pyrimidin-4-yl]phenyl]-3-methyl-urea], the IC50 at mTOR was less than 110 nM; at PI3Kα, more than 100 nM; at PI3Kβ, more than 100 nM; on PI3Kδ it was more than 100 nM; on PI3Kγ it was more than 100 nM; with U87-MG cells, less than 1000 nM. For the same compound, the IC50 in the test on A549 cells is less than 1000 nM.
Take `CNC(=O)Nc1ccc(-c2nc(N3CCOCC3)nc3c2cnn3C(C)C)cc1` [Example 3, 1-[4-(1-isopropyl-6-morpholino-pyrazolo[3,4-d]pyrimidin-4-yl)phenyl]-3-methyl-urea]: the IC50 at mTOR is less than 110 nM; at PI3Kα it was more than 100 nM; on PI3Kβ, more than 100 nM; at PI3Kδ, more than 100 nM; at PI3Kγ, more than 100 nM.
Regarding `CNC(=O)Nc1ccc(-c2nc(N3CCOCC3)nc3c2cnn3C2CCN(C(=O)OC)CC2)cc1` [Example 6, methyl 4-[4-[4-(methylcarbamoylamino)phenyl]-6-morpholino-pyrazolo[3,4-d]pyrimidin-1-yl]piperidine-1-carboxylate], the IC50 is less than 110 nM on mTOR; more than 100 nM at PI3Kα; more than 100 nM at PI3Kβ; more than 100 nM at PI3Kδ; more than 100 nM on PI3Kγ.
Turning to `CNC(=O)Nc1ccc(-c2nc(N3CCOCC3)nc3c2cnn3C2CCN(C(=O)CO)CC2)cc1` [Example 9, 1-[4-[1-[1-(2-hydroxyacetyl)-4-piperidyl]-6-morpholino-pyrazolo[3,4-d]pyrimidin-4-yl]phenyl]-3-methyl-urea], the IC50 in the test with U87-MG cells and with A549 cells was less than 1000 nM throughout.
Consider `CNC(=O)Nc1ccc(-c2nc(N3CCOCC3)nc3c2cnn3C2CCN(C(=O)[C@H](C)O)CC2)cc1` [Example 10, 1-[4-[1-[1-[(2S)-2-hydroxypropanoyl]-4-piperidyl]-6-morpholino-pyrazolo[3,4-d]pyrimidin-4-yl]phenyl]-3-methylurea], for which the IC50 in the test on U87-MG cells and with A549 cells was less than 1000 nM throughout.
For `CNC(=O)Nc1ccc(-c2nc(N3CCOCC3)nc3c2cnn3C2CCN(C(=O)COC)CC2)cc1` [Example 11, 1-[4-[1-[1-(2-methoxyacetyl)-4-piperidyl]-6-morpholino-pyrazolo[3,4-d]pyrimidin-4-yl]phenyl]-3-methyl-urea], the IC50 with U87-MG cells and in the test with A549 cells was less than 1000 nM throughout.
In the case of `CNC(=O)Nc1ccc(-c2nc(N3CCOCC3)nc3c2cnn3C2CCOCC2)cc1` [Example 13, 1-methyl-3-[4-(6-morpholino-1-tetrahydropyran-4-yl-pyrazolo[3,4-d]pyrimidin-4-yl)phenyl]urea], the IC50 was less than 110 nM on mTOR; more than 100 nM on PI3Kα; more than 100 nM on PI3Kβ; more than 100 nM at PI3Kδ; more than 100 nM on PI3Kγ; less than 1000 nM with U87-MG cells. In addition, in the test with A549 cells, the IC50 was less than 1000 nM.
Turning to `CNC(=O)Nc1ccc(-c2nc(N3CC4CCC(C3)O4)nc3c2cnn3C2CCOCC2)cc1` [Example 14, 1-methyl-3-[4-[6-(8-oxa-3-azabicyclo[3.2.1]octan-3-yl)-1-tetrahydropyran-4-yl-pyrazolo[3,4-d]pyrimidin-4-yl]phenyl]urea], the IC50 with U87-MG cells and in the test with A549 cells was less than 1000 nM throughout.
With `CNC(=O)Nc1ccc(-c2nc(N3CCOC[C@@H]3C)nc3c2cnn3CC(C)(C)O)cc1` [Example 16, N-{4-[6-((3S)-3-methylmorpholin-4-yl)-1-(2-hydroxy-2-methylpropyl)pyrazolo[4,5-e]pyrimidin-4-yl]phenyl}(methylamino)carboxamide], the IC50 on mTOR is less than 110 nM; at PI3Kα it was more than 100 nM; on PI3Kβ it was more than 100 nM; at PI3Kδ, more than 100 nM; at PI3Kγ, more than 100 nM.
As to `CNC(=O)Nc1ccc(-c2nc(N3CCOC[C@H]3C)nc3c2cnn3CC(C)(C)O)cc1` [Example 17, N-{4-[6-((3R)-3-methylmorpholin-4-yl)-1-(2-hydroxy-2-methylpropyl)pyrazolo[4,5-e]pyrimidin-4-yl]phenyl}(methylamino)carboxamide], the IC50 was less than 110 nM at mTOR; more than 100 nM on PI3Kα; more than 100 nM at PI3Kβ; more than 100 nM at PI3Kδ; more than 100 nM at PI3Kγ.
For the compound `CNC(=O)Nc1ccc(-c2nc(N3CCOCC3)nc3c2cnn3C2CCC(CO)CC2)cc1` (stereo not drawn) [Example 20, N-(4-{1-[4-(hydroxymethyl)cyclohexyl]-6-morpholin-4-ylpyrazolo[4,5-e]pyrimidin-4-yl}phenyl)(methylamino)carboxamide], the IC50 in the test on U87-MG cells and in the test with A549 cells was less than 1000 nM throughout.
In the case of `CNC(=O)Nc1ccc(-c2nc(N3CCOCC3)nc3c2cnn3C2CCC(O)CC2)cc1` (stereo not drawn) [Example 22, N-{4-[1-(4-hydroxycyclohexyl)-6-morpholin-4-ylpyrazolo[4,5-e]pyrimidin-4-yl]phenyl}(methylamino)carboxamide], the IC50 in the test with U87-MG cells and in the test with A549 cells was less than 1000 nM each time.
As for `CNC(=O)Nc1ccc(-c2nc(N3CCOCC3)nc3c2cnn3C2CCCC2)cc1` [Example 24, N-[4-(1-cyclopentyl-6-morpholin-4-ylpyrazolo[4,5-e]pyrimidin-4-yl)phenyl](methylamino)carboxamide], the IC50 with U87-MG cells and with A549 cells was less than 1000 nM each time.
With `CNC(=O)Nc1ccc(-c2nc(N3CCOC[C@@H]3C)nc3c2cnn3C2CCCC2)cc1` [Example 25, N-{4-[6-((3S)-3-methylmorpholin-4-yl)-1-cyclopentylpyrazolo[4,5-e]pyrimidin-4-yl]phenyl}(methylamino)carboxamide], the IC50 with U87-MG cells and in the test with A549 cells was less than 1000 nM each time.
